In PubChem BioAssay (NCI):
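Compound exposure: 48 hours, 5 concentrations, 96-well plates. GI50 = concentration required for 50% inhibition of growth. TGI: total growth inhibition.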

Key:
Experiment in all cases: NCI anticancer screen, dose series, 48 h
786-0 renal = system: 786-0 renal
CAKI-1 renal = system: CAKI-1 renal
NCI-H23 lung = system: NCI-H23 lung
SN12C renal = system: SN12C renal
MCF7 breast = system: MCF7 breast
HOP-92 NSCLC = system: HOP-92 NSCLC
SNB-19 CNS = system: SNB-19 CNS
MOLT-4 leukemia = system: MOLT-4 leukemia
UO-31 renal = system: UO-31 renal
SR leukemia = system: SR leukemia
SNB-75 CNS = system: SNB-75 CNS
HS 578T breast = system: HS 578T breast
NCI/ADR-RES ovarian = system: NCI/ADR-RES ovarian
T-47D breast = system: T-47D breast
LOX IMVI melanoma = system: LOX IMVI melanoma
HCC-2998 colon = system: HCC-2998 colon
SK-OV-3 ovarian = system: SK-OV-3 ovarian
OVCAR-5 ovarian = system: OVCAR-5 ovarian
NCI-H460 lung = system: NCI-H460 lung
ACHN renal = system: ACHN renal
UACC-62 melanoma = system: UACC-62 melanoma
M14 melanoma = system: M14 melanoma
PC-3 prostate = system: PC-3 prostate
SF-268 CNS = system: SF-268 CNS
HL-60(TB) leukemia = system: HL-60(TB) leukemia
RPMI-8226 leukemia = system: RPMI-8226 leukemia
SK-MEL-28 melanoma = system: SK-MEL-28 melanoma
SK-MEL-5 melanoma = system: SK-MEL-5 melanoma
HOP-62 NSCLC = system: HOP-62 NSCLC
HCT-15 colon = system: HCT-15 colon
SF-295 CNS = system: SF-295 CNS
NCI-H522 lung = system: NCI-H522 lung
U251 CNS = system: U251 CNS
SF-539 CNS = system: SF-539 CNS
A549 NSCLC = system: A549 NSCLC
A498 renal = system: A498 renal
CCRF-CEM leukemia = system: CCRF-CEM leukemia
SW-620 colon = system: SW-620 colon
BT-549 breast = system: BT-549 breast
HT29 colon = system: HT29 colon
NCI-H226 lung = system: NCI-H226 lung
TK-10 renal = system: TK-10 renal
HCT-116 colon = system: HCT-116 colon
EKVX NSCLC = system: EKVX NSCLC
RXF 393 renal = system: RXF 393 renal
IGROV1 ovarian = system: IGROV1 ovarian
OVCAR-8 ovarian = system: OVCAR-8 ovarian
OVCAR-3 ovarian = system: OVCAR-3 ovarian
UACC-257 melanoma = system: UACC-257 melanoma
KM12 colon = system: KM12 colon
COLO 205 colon = system: COLO 205 colon
OVCAR-4 ovarian = system: OVCAR-4 ovarian
K-562 leukemia = system: K-562 leukemia
MALME-3M melanoma = system: MALME-3M melanoma
MDA-MB-231 breast = system: MDA-MB-231 breast
MDA-MB-435 = system: MDA-MB-435
DU-145 prostate = system: DU-145 prostate
SK-MEL-2 melanoma = system: SK-MEL-2 melanoma

## CN[C@@H](C)C(=O)N[C@H]1CCS[C@H]2CC(C)(C)[C@@H](C(=O)N[C@H]3c4ccccc4C[C@H]3OCC#CC#CCO[C@@H]3Cc4ccccc4[C@@H]3NC(=O)[C@H]3N4C(=O)[C@@H](NC(=O)[C@H](C)NC)CCS[C@H]4CC3(C)C)N2C1=O
786-0 renal
  GI50: > 50 µM
  TGI: > 50 µM
CAKI-1 renal
  GI50: > 50 µM
  TGI: > 50 µM
NCI-H23 lung
  GI50: > 32 µM
  TGI: > 50 µM
SN12C renal
  GI50: > 46.9 µM
  TGI: > 50 µM
MCF7 breast
  GI50: 5.87 µM
  TGI: 17.8 µM
HOP-92 NSCLC
  GI50: 2.99 µM
  TGI: 14.3 µM
SNB-19 CNS
  GI50: > 50 µM
  TGI: > 50 µM
MOLT-4 leukemia
  GI50: 9.86 µM
  TGI: 22.4 µM
UO-31 renal
  GI50: > 50 µM
  TGI: > 50 µM
SR leukemia
  GI50: 0.0264 µM
  TGI: > 22.1 µM
SNB-75 CNS
  GI50: 1.99 µM
  TGI: 21.4 µM
HS 578T breast
  GI50: 15.5 µM
  TGI: > 50 µM
NCI/ADR-RES ovarian
  GI50: > 50 µM
  TGI: > 50 µM
T-47D breast
  GI50: 29.9 µM
  TGI: > 50 µM
LOX IMVI melanoma
  GI50: 13.8 µM
  TGI: > 50 µM
HCC-2998 colon
  GI50: 19.5 µM
  TGI: > 50 µM
SK-OV-3 ovarian
  GI50: < 0.005 µM
  TGI: < 0.005 µM
OVCAR-5 ovarian
  GI50: > 50 µM
  TGI: > 50 µM
NCI-H460 lung
  GI50: 24.6 µM
  TGI: > 50 µM
ACHN renal
  GI50: > 50 µM
  TGI: > 50 µM
UACC-62 melanoma
  GI50: > 50 µM
  TGI: > 50 µM
M14 melanoma
  GI50: > 50 µM
  TGI: > 50 µM
PC-3 prostate
  GI50: > 28.4 µM
  TGI: > 50 µM
SF-268 CNS
  GI50: 41.9 µM
  TGI: > 50 µM
HL-60(TB) leukemia
  GI50: 0.0759 µM
  TGI: 2.33 µM
RPMI-8226 leukemia
  GI50: 2.25 µM
  TGI: > 36 µM
SK-MEL-28 melanoma
  GI50: > 46.6 µM
  TGI: > 50 µM
SK-MEL-5 melanoma
  GI50: 4.75 µM
  TGI: > 16.8 µM
HOP-62 NSCLC
  GI50: 3.72 µM
  TGI: > 50 µM
HCT-15 colon
  GI50: > 50 µM
  TGI: > 50 µM
SF-295 CNS
  GI50: > 50 µM
  TGI: > 50 µM
NCI-H522 lung
  GI50: 7.38 µM
  TGI: 32 µM
U251 CNS
  GI50: > 50 µM
  TGI: > 50 µM
SF-539 CNS
  GI50: 0.0118 µM
  TGI: 2.4 µM
A549 NSCLC
  GI50: > 50 µM
  TGI: > 50 µM
A498 renal
  GI50: > 50 µM
  TGI: > 50 µM
CCRF-CEM leukemia
  GI50: 0.0966 µM
  TGI: 12.3 µM
SW-620 colon
  GI50: > 50 µM
  TGI: > 50 µM
BT-549 breast
  GI50: 0.00762 µM
  TGI: 6.38 µM
HT29 colon
  GI50: 20.2 µM
  TGI: > 50 µM
NCI-H226 lung
  GI50: > 50 µM
  TGI: > 50 µM
TK-10 renal
  GI50: > 50 µM
  TGI: > 50 µM
HCT-116 colon
  GI50: > 28.8 µM
  TGI: > 50 µM
EKVX NSCLC
  GI50: > 38.9 µM
  TGI: > 50 µM
RXF 393 renal
  GI50: 0.423 µM
  TGI: 5.24 µM
IGROV1 ovarian
  GI50: 32.1 µM
  TGI: > 50 µM
OVCAR-8 ovarian
  GI50: 35.9 µM
  TGI: > 50 µM
OVCAR-3 ovarian
  GI50: 12 µM
  TGI: > 43.9 µM
UACC-257 melanoma
  GI50: > 50 µM
  TGI: > 50 µM
KM12 colon
  GI50: 30.5 µM
  TGI: > 50 µM
COLO 205 colon
  GI50: 25.2 µM
  TGI: > 50 µM
OVCAR-4 ovarian
  GI50: 0.0146 µM
  TGI: 0.203 µM
K-562 leukemia
  GI50: 12.9 µM
  TGI: > 33.4 µM
MALME-3M melanoma
  GI50: 0.00951 µM
  TGI: 0.115 µM
MDA-MB-231 breast
  GI50: < 0.005 µM
  TGI: 0.0239 µM
MDA-MB-435
  GI50: > 23 µM
  TGI: > 50 µM
DU-145 prostate
  GI50: 20.6 µM
  TGI: > 50 µM
SK-MEL-2 melanoma
  GI50: 0.174 µM
  TGI: 13.9 µM
